Measured values from patent publication US20080280866A1, “Method of Treating or Sepsis” (priority 2004, published 2008).
Entries after “also recorded” stand apart in the source; their conditions may differ. Read-outs that look alike come from different tables or passages of the source.

Key:
SOC channels = settings: HL-60 cells, values determined by Harper; cited from earlier work
[1] = test system: voltage-dependent L-type calcium channels; settings: GH4C1 cells, values determined by Harper; cited from earlier work
rat T/HS = experiment: Rat T/HS, post-shock treatment: lung MPO and Evans Blue dye leak; format: in vivo; settings: IP after return of 10% of shed blood, estimated plasma level 30 μM; 3 hours after reperfusion; FIG. 1
Experimental: Male rats underwent standard T/HS. 4-[4-(4-Chloro-phenyl)-thiazol-2-ylamino]-phenol or N-propargyl-nitrendipine (estimated plasma level 30 μM for each) or vehicle were administered IP after the return of 10% of total shed blood to the animal. Different groups of animals (n=6/group) were sacrificed 3 hours after reperfusion for bronchoalveolar lavage and Evan's Blue dye leak assay, or to harvest the lungs for MPO assays (FIG. 1).
N=6 animals per condition, *p<0.01 for inter-group comparisons.

PMN = experiment: Rat T/HS, post-shock treatment: PMN CD11b and respiratory burst by flow cytometry; format: in vivo; settings: IP post-treatment, whole blood 3 hrs post reperfusion; for PMN CD11b expression: FIG. 2; for PMN priming for respiratory burst initiated by PMA: FIG. 3
Experimental: Male rats underwent T/HS with or without 4-[4-(4-chloro-phenyl)-thiazol-2-ylamino]-phenol or N-propargyl-nitrendipine administered IP in post-treatment as above. Small (200 μL) whole blood samples removed prior to shock and 3 hrs post reperfusion were assayed for PMN CD11b (FIG. 2) and respiratory burst (FIG. 3) by flow cytometry. […] Left histogram, preshock; Right histogram, 3 h post-shock; Center (dark) histogram, 3 h post-shock PMN from animal treated with the indicated drug during resuscitation. Representative flow histograms, n=3-4 per condition. P<0.01, ANOVA/Tukey's test for all inter-group comparisons. […] Representative flow histograms are arranged as in FIG. 2, n=3-4 per condition. P<0.01 by ANOVA/Tukey's test for all inter-group comparisons.

p38 MAP kinase = experiment: Rat T/HS, post-shock treatment: Western blot of PMN phosphorylated p38 MAP kinase; format: in vivo; settings: IP post-treatment; PMN lysates 3 hours after T/HS; FIG. 4
Experimental: The phosphorylation of p38-mitogen associated protein kinase [“p38 MAP kinase”] in the presence of inflammatory stimuli is a key cellular mechanism involved in irreversible neutrophil activation and post-shock organ injury. Male rats underwent T/HS with or without 4-[4-(4-chloro-phenyl)-thiazol-2-ylamino]-phenol or N-propargyl-nitrendipine administered IP in post-treatment as above. At the end of 3 hours post reperfusion, animals were sacrificed by exsanguination. PMN were isolated. Whole cell lysates were probed using specific antibodies for phosphorylated p38 MAP kinase. SOC inhibition via either strategy led to diminished activation. Lysates of rat PMN were sampled 3 hours after T/HS. Animals were treated with 4-[4-(4-chloro-phenyl)-thiazol-2-ylamino]-phenol or vehicle (DMSO) at the time of resuscitation. Positive controls (+) were rat PMN activated in vitro with fMLP. […] Thus SIP/SOC inhibition diminishes PMN p38 MAP kinase activation by T/HS.

[2] = format: in vivo
Experimental: In all the above experiments, rats undergoing T/HS were treated with SKI-2 or N-propargyl-nitrendipine given as an IP bolus just after the BP nadir. At this point, MAP has risen only from 30-40 to approximately 50 mmHg.

[3] = test system: rat traumatic, hemorrhagic shock model; experiment: Rat traumatic, hemorrhagic shock model, treatment prior to shock
Experimental: A rat traumatic, hemorrhagic shock model was used (32). […] Animals were then underwent T/HS, were resuscitated with shed blood and sacrificed by exsanguination 3 hours after resuscitation. We assayed lung injury as % Evans Blue dye leak, which provides a measure of the leakiness of lung capillaries. PMN activation was assessed as CD11b expression by flow cytometry (Table 1).

PMN SOC = settings: cited from earlier work
[4] = IP bolus just after the BP nadir

COC(=O)C1=C(C)N(C)C(C)=C(C(=O)OC)C1c1cccc([N+](=O)[O-])c1 [Compound 30]
IC50 (SOC channels): 2800 ± 30 nM
IC50 [1]: 2000 nM

CCOC(=O)C1=C(C)N(C)C(C)=C(C(=O)OC)C1c1cccc([N+](=O)[O-])c1 (stereo not shown) [Compound 32]
IC50 (SOC channels): 2600 ± 1100 nM
IC50 [1]: 1300 ± 300 nM

CCOC(=O)C1=C(C)N(CC)C(C)=C(C(=O)OC)C1c1cccc([N+](=O)[O-])c1 (stereo not shown) [Compound 33]
IC50 (SOC channels): 6000 nM
IC50 [1]: 2300 ± 400 nM

C=CCN1C(C)=C(C(=O)OC)C(c2cccc([N+](=O)[O-])c2)C(C(=O)OCC)=C1C (stereo not shown) [Compound 34]
IC50 (SOC channels): 6800 ± 1800 nM
IC50 [1]: 3800 ± 1800 nM

C#CCN1C(C)=C(C(=O)OC)C(c2cccc([N+](=O)[O-])c2)C(C(=O)OCC)=C1C (stereo not shown) [Compound 35, N-propargyl-nitrendipine]
Capillary-alveolar leakage (Evans Blue dye leak) (rat T/HS): prevented PMN accumulation and subsequent capillary-alveolar leakage; also recorded: yielded the same effects
Pulmonary PMN infiltration/accumulation (MPO assay) (rat T/HS): prevented PMN accumulation; also recorded: yielded the same effects
PMN CD11b expression (PMN): decreased CD11b expression almost to the level seen prior to shock
PMN priming for respiratory burst initiated by PMA (PMN): decreased PMN priming for respiratory burst initiated by PMA (phorbol 12-myristate 13-acetate) almost to the levels seen prior to shock
PMN p38 MAP kinase phosphorylation/activation (p38 MAP kinase): Attenuation of p38 MAP Kinase phosphorylation and activation was also seen
Episodes of hypotension [2, 4]: No episodes of hypotension were seen
Survival of the acute shock phase [2, 4]: all animals survived the acute shock phase
IC50 (SOC channels): 1700 ± 1300 nM
IC50 [1]: 2100 ± 200 nM
Attenuation of lung injury ([3]; pre-treatment IP, target concentration 30 μm): Identical attenuation of lung injury as in Example 1
Lung PMN infiltration by myeloperoxidase (MPO) assay ([3]; pre-treatment IP, data not shown): diminished lung PMN infiltration

Oc1ccc(Nc2nc(-c3ccc(Cl)cc3)cs2)cc1 [SKI-2, 4-[4-(4-Chloro-phenyl)-thiazol-2-ylamino]-phenol]
Capillary-alveolar leakage (Evans Blue dye leak) (rat T/HS): prevented PMN accumulation and subsequent capillary-alveolar leakage; also recorded: inhibits PMN mediated lung injury
Pulmonary PMN infiltration/accumulation (MPO assay) (rat T/HS): prevented PMN accumulation; also recorded: inhibits PMN mediated lung injury
PMN CD11b expression (PMN): decreased CD11b expression almost to the level seen prior to shock
PMN priming for respiratory burst initiated by PMA (PMN): decreased PMN priming for respiratory burst initiated by PMA (phorbol 12-myristate 13-acetate) almost to the levels seen prior to shock
PMN p38 MAP kinase phosphorylation/activation (p38 MAP kinase): attenuation of MAPK activation
Episodes of hypotension [2, 4]: No episodes of hypotension were seen
Survival of the acute shock phase ([2]; rat, in vivo, ip): all animals survived the acute shock phase
CD11b (MFI) ([3]; PMN activation by flow cytometry, IP at laparotomy prior to shock, estimated plasma level 30 μM, 3 hours after resuscitation): 225 ± 18 MFI
Evans Blue (%) ([3]; lung injury as % Evans Blue dye leak, IP prior to shock, estimated plasma level 30 μM, 3 hours after resuscitation): 3.8 ± 1.7 %
Hemodynamic effects ([3]; pre-treatment IP): No unexpected hemodynamic effects were noted
Phlebotomy volumes ([3]; treatment vs placebo groups, pre-treatment IP): identical in the treatment and placebo groups

[Gd+3] [gadolinium (Gd3+), gadolinium]
Concentration inhibiting PMN SOC (PMN SOC): low-mid nanomolar concentrations
